The values below are quoted from earlier work in paper PMC7315836 (Journal of medicinal chemistry, 2020).

Data set [1] relates to SARS-CoV.
Data set [2] has as its system MERS-CoV.
The test system of data set [3] is human aortic endothelial cells. As to conditions: 100 μM.
In a further data set the test system is cathepsin L. The conditions noted are these: cathepsin L inhibition assay.
The subject of another data set is TMPRSS2. The conditions noted are these: by inhibiting TMPRSS2 activity.
Data set [4] relates to SARS-CoV-2.
The subject of data set [5] is SARS-CoV. This is another data set of the same source.
Data set [6] relates to HCoV-229E.
The next data set relates to furin. The conditions noted are these: HEK293 cells.
The test system of data set [7] is ACE2. As to conditions: read-out: IC50, ACE2 catalytic activity.
The target of data set [8] is TACE (TNF-α converting enzyme). As to conditions: read-out: IC50, ACE2 shedding.
The conditions of data set [9]: acute toxicity, mice.
Data set [10] deals with MERS-CoV. The source holds these as a separate data set.
Data set [11] has as its system MERS-CoV. The source holds these as a separate data set.
Data set [12] relates to ACE2.
For data set [13], the target named is ACE2. The source holds these as a separate data set.
A further data set has as its system HCoV-NL63. As to conditions: HCoV-NL63 pseudovirus.
Data set [14] concerns HCoV-OC43. As to conditions: 5 mg/kg.
Data set [15] deals with HCoV-229E. The conditions noted are these: HCoV-229E pseudovirus.
For data set [16], the system named is MERS-CoV. As to conditions: mouse, in vivo.
Data set [17] has as its system SARS-CoV-2. The conditions noted are these: SARS-CoV-2 pseudovirus assay.
The test system of data set [18] is HCoV-OC43. As to conditions: HCoV-OC43 pseudovirus.
Test in data set [19]: not given
This is another data set of the same source.

The subject of data set [20] is SARS-CoV-2 S-mediated membrane fusion. The conditions noted are these: fusion inhibitory assay.
The subject of data set [21] is SARS-CoV. This is another data set of the same source.

Read-outs that look alike come from different tables or passages of the source.

Take `COc1ccc(S(=O)(=O)O)cc1/N=N/c1c(S(=O)(=O)O)cc2cc(Nc3nc(Nc4ccccc4)nc(Nc4cc(C)c(/N=N/c5cc(S(=O)(=O)O)cc6cc(S(=O)(=O)O)cc(O)c56)cc4OC)n3)ccc2c1O` [ADS-J1 (15), ADS-J1]: the IC50 (commonly the point on the concentration scale where inhibition reaches its midpoint) in the data set with SARS-CoV [1] was 3.89 µM; with coronaviruses, 600 to 3890 nM; in the data set on MERS-CoV [2], 600 nM.

Regarding `CC(C)(C)OC(=O)N[C@@H](Cc1c[nH]c2ccccc12)C(=O)NNC(=O)OCC(=O)N1CCCc2ccccc21` [CID23631927 (19), CID 23631927], in [3], the toxicity entry was “did not show any sign of toxicity”. The IC50 in the data set on cathepsin L is 6.9 nM.

As for `CCc1ccccc1NC(=O)CSC(=O)NNC(=O)[C@H](Cc1c[nH]c2ccccc12)NC(=O)OC(C)(C)C` [CID 16725315 (18), CID 16725315], the concentration for half-maximal inhibition (IC50) in the data set with cathepsin L is 56 nM.

Turning to `CN(C)C(=O)COC(=O)Cc1ccc(OC(=O)c2ccc(NC(=N)N)cc2)cc1` [Camostat (22), Camostat], in the data set with TMPRSS2, the “concentration preventing SARS-CoV infections” value was 10 µM. Besides, in the data set on SARS-CoV-2 [4], the “viral entry of SARS-CoV-2” value is reported as “could prevent the viral entry of SARS-CoV-2”.

As to `CCN(CC)CCCC(C)Nc1ccnc2cc(Cl)ccc12` (stereo not shown) [Chloroquine (4), Chloroquine], the “toxicity that could be caused” value is “ventricular arrhythmias,[72] QT prolongation,[72],[73] retinopathy,[74] and other cardiac-related toxicity”. In addition, in the data set on coronaviruses, the IC50 was 1130 to 4400 nM. The ED50 with SARS-CoV [5] is 4.4 µM.

With `CCC[C@@H]([C@@H](CC(C)C)C(=O)N[C@@H](CCCCNC(=O)OCc1ccccc1)C(=O)Nc1nccs1)N(O)C=O` [GW280264X (6), GW280264X], the “concentration reducing shedding of ACE2” value in the data set on ADAM17 is recorded as 1 nM.

`CCN(CCO)CCCC(C)Nc1ccnc2cc(Cl)ccc12` (stereo not shown) [Hydroxychloroquine (5), Hydroxychloroquine]: the “toxicity that could be caused” value is “ventricular arrhythmias,[72] QT prolongation,[72],[73] retinopathy,[74] and other cardiac-related toxicity”.

For the compound `O=C(NC(Cc1ccccc1)C(=O)N1CCC(O)(c2ccc(Br)cc2)CC1)c1ccccc1` (stereo not shown) [K22 (2), K22], the IC50 in the data set on HCoV-229E [6] is 700 nM.

Consider `CN1CCN(C(=O)N[C@@H](Cc2ccccc2)C(=O)N[C@H](/C=C/S(=O)(=O)c2ccccc2)CCc2ccccc2)CC1` [K11777 (21), K11777], for which the IC50 with coronaviruses is 0.68 to 46.1 nM.

As for `CC(C)(C)[C@H](NC(=O)[C@H](CCONC(=N)N)NC(=O)Cc1ccc(CNC(=N)N)cc1)C(=O)N[C@@H](CCONC(=N)N)C(=O)NCc1ccc(C(=N)N)cc1` [MI-1851 (24), MI-1851], the “proteolytic processing of SARS-CoV-2 S protein by endogenous furin” value in the data set with furin was “could prevent proteolytic processing of the S protein”.

Turning to `NCCNCCN1CC1` [NAAE (3), N-(2-amino-ethyl)-1 aziridine-ethanamine], the IC50 with ACE2 [7] is 57 µM.

Consider `CC(C)CC(CC(=O)NO)C(=O)NC(Cc1ccc2ccccc2c1)C(=O)NC(C)C(N)=O` (stereo not shown) [TAPI-0 (7), TAPI-0], for which the IC50 in data set [8] was 100 nM.

In the case of `O=C(OC[C@H]1O[C@@H](OC(=O)c2cc(O)c(O)c(O)c2)[C@H](OC(=O)c2cc(O)c(O)c(O)c2)[C@H](OC(=O)c2cc(O)c(O)c(O)c2)[C@@H]1O)c1cc(O)c(O)c(O)c1` [TGG (12), TGG], the 50% lethal dose in data set [9] was ~ 456 mg/kg.

Take `Cc1nc(Nc2ncc(C(=O)Nc3c(C)cccc3Cl)s2)cc(N2CCN(CCO)CC2)n1` [dasatinib (29), dasatinib]: the half-maximal inhibitory concentration (IC50) is 2100 to 5400 nM in the data set with coronaviruses and 5.4 µM in the data set on MERS-CoV [10].

`O=c1cc(-c2ccc(O)c(O)c2)oc2cc(O)cc(O)c12` [luteolin (13), luteolin]: the 50% lethal dose in [9] was 232.2 mg/kg.

Consider `CN1CCN(CCOc2cc(OC3CCOCC3)c3c(Nc4c(Cl)ccc5c4OCO5)ncnc3c2)CC1` [saracatinib (30), saracatinib], for which the IC50 was 2400 to 5100 nM with coronaviruses and 2900 nM with MERS-CoV [11].

For DX600, the “inhibition of ACE activity” value in the data set on ACE is on record as “did not inhibit ACE activity”. Moreover, the stability entry in the data set on ACE2 [12] is “chemically stable and not hydrolyzable by ACE2”. Besides, the inhibitory constant (Ki) (in general, the dissociation constant of the complex between target and ligand, obtained from inhibition or displacement) on ACE2 [13] was 2.8 nM.

In the case of EK1, the IC50 in the data set on HCoV-NL63 is 6.02 µM; with HCoV-229E [15] it was 3.35 µM; in the data set on SARS-CoV-2 [17], 2380 nM; in the data set with HCoV-OC43 [18], 1810 nM; in [20], 190 nM. For the same compound, the “protection of mice from HCoV-OC43” value with HCoV-OC43 [14] is listed as “nearly completely protected”. In addition, the “protection of mice against MERS-CoV infection” value with MERS-CoV [16] is “nearly completely protected”. Further, in data set [19], the “cytotoxic concentration (not cytotoxic up to)” value is > 1 mM.

MDL28170 [MDL28170 (17)]: in the data set on SARS-CoV [21], the EC50 (usually the concentration needed to bring the measured effect to its halfway point) is ~100 nM.

In the case of Teicoplanin, in the data set on SARS-CoV-2 pseudoviruses, the half-maximal inhibitory concentration (IC50) was 1660 nM.
